Test results as given in ChEMBL document CHEMBL1201862, “PubChem BioAssay data set” (2004).
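Cultured in 96-well plates, cells were exposed to test compound for 48 hours across five concentrations. GI50 = concentration required for 50% inhibition of growth.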 Calls of active or inactive are those of the source. Cut-off read from the data, not from the text of the source: active = GI50 up to about 1.1 µM and inactive = higher.

What was measured:
Test in all cases: NCI tumour cell line growth inhibition, 48 h
[1] = tested on: RPMI-8226
[2] = tested on: UACC-62
[3] = tested on: NCI-H226
[4] = tested on: HT-29
[5] = tested on: T47D
[6] = tested on: SNB-75
[7] = tested on: UO-31
[8] = tested on: SN12C
[9] = tested on: SNB-19
[10] = tested on: RXF 393
[11] = tested on: LOX IMVI
[12] = tested on: KM12
[13] = tested on: SF-268
[14] = tested on: U-251
[15] = tested on: UACC-257
[16] = tested on: SF-539
[17] = tested on: Hs-578T
[18] = tested on: OVCAR-8
[19] = tested on: EKVX
[20] = tested on: MOLT-4

Compound	GI50 [1]	GI50 [2]	GI50 [3]	GI50 [4]	GI50 [5]	GI50 [6]	GI50 [7]	GI50 [8]	GI50 [9]	GI50 [10]	GI50 [11]	GI50 [12]	GI50 [13]	GI50 [14]	GI50 [15]	GI50 [16]	GI50 [17]	GI50 [18]	GI50 [19]	GI50 [20]
Oc1ccc(Cl)cc1Cc1cc(Cl)cc(Cc2cc(Cl)ccc2O)c1O	0.91 µM (active)	2.15 µM (inactive)	2.74 µM (inactive)	3 µM (inactive)	2.07 µM (inactive)	1.93 µM (inactive)	3.01 µM (inactive)	2.4 µM (inactive)	2.56 µM (inactive)	1.84 µM (inactive)	2.9 µM (inactive)	2.64 µM (inactive)	2.69 µM (inactive)	2.7 µM (inactive)	2.01 µM (inactive)	1.64 µM (inactive)	1.88 µM (inactive)	3.43 µM (inactive)	2.33 µM (inactive)	2.34 µM (inactive)
NC(=O)ON=C1CCN(Cc2ccccc2)CC1	> 100 µM (inactive)	> 100 µM (inactive)	> 100 µM (inactive)	> 100 µM (inactive)	> 100 µM (inactive)	74.8 µM (inactive)	> 100 µM (inactive)	> 100 µM (inactive)	> 100 µM (inactive)	> 100 µM (inactive)	> 100 µM (inactive)	> 100 µM (inactive)	> 100 µM (inactive)	> 100 µM (inactive)	> 100 µM (inactive)	> 100 µM (inactive)	> 100 µM (inactive)	> 100 µM (inactive)	> 100 µM (inactive)	> 100 µM (inactive)
COc1ccc(OC)c(NC2=NCCO2)c1	> 100 µM (inactive)	> 100 µM (inactive)	> 100 µM (inactive)	62.2 µM (inactive)	> 100 µM (inactive)	> 100 µM (inactive)	> 100 µM (inactive)	> 100 µM (inactive)	10.6 µM (inactive)	> 100 µM (inactive)	> 100 µM (inactive)	> 100 µM (inactive)	> 100 µM (inactive)	> 100 µM (inactive)	> 100 µM (inactive)	> 100 µM (inactive)	> 100 µM (inactive)	> 100 µM (inactive)	> 100 µM (inactive)	> 100 µM (inactive)
O=[N+]([O-])c1ccc(CSc2c3ccccc3nc3ccccc23)cc1	2.85 µM (inactive)	14.4 µM (inactive)	16.7 µM (inactive)	2.28 µM (inactive)	1.85 µM (inactive)	19 µM (inactive)	5.62 µM (inactive)	3.52 µM (inactive)	15.8 µM (inactive)	5.47 µM (inactive)	2.93 µM (inactive)	4.62 µM (inactive)	7.64 µM (inactive)	7.28 µM (inactive)	3.33 µM (inactive)	2.47 µM (inactive)	3.21 µM (inactive)	3.33 µM (inactive)	15.9 µM (inactive)	2.31 µM (inactive)
C=C(Br)CNCC(=C)Br	51.9 µM (inactive)	> 100 µM (inactive)	> 100 µM (inactive)	90.6 µM (inactive)	> 100 µM (inactive)	68.5 µM (inactive)	> 100 µM (inactive)	> 100 µM (inactive)	> 100 µM (inactive)	> 100 µM (inactive)	> 100 µM (inactive)	> 100 µM (inactive)	> 100 µM (inactive)	> 100 µM (inactive)	29 µM (inactive)	> 100 µM (inactive)	> 100 µM (inactive)	> 100 µM (inactive)	> 100 µM (inactive)	48.6 µM (inactive)
C[C@H]1[C@H](C)N1CC(O)Cn1ccnc1[N+](=O)[O-] (stereo not given in full)	> 100 µM (inactive)	> 100 µM (inactive)	> 100 µM (inactive)	> 100 µM (inactive)	> 100 µM (inactive)	> 100 µM (inactive)	> 100 µM (inactive)	> 100 µM (inactive)	> 100 µM (inactive)	> 100 µM (inactive)	> 100 µM (inactive)	> 100 µM (inactive)	> 100 µM (inactive)	> 100 µM (inactive)	> 100 µM (inactive)	> 100 µM (inactive)	> 100 µM (inactive)	> 100 µM (inactive)	> 100 µM (inactive)	> 67.6 µM (inactive)
O=C1C=C(NCCc2cc(Br)c(O)c(Br)c2)C(=O)c2[nH]cnc21	> 10 µM (inactive)	19.5 µM (inactive)	23 µM (inactive)	26.9 µM (inactive)	30.3 µM (inactive)	21.9 µM (inactive)	75 µM (inactive)	26.2 µM (inactive)	36.1 µM (inactive)	19.5 µM (inactive)	21.5 µM (inactive)	48.5 µM (inactive)	49 µM (inactive)	38.3 µM (inactive)	5.6 µM (inactive)	22.4 µM (inactive)	7.35 µM (inactive)	38.7 µM (inactive)	96.2 µM (inactive)	> 10 µM (inactive)
